# Like-named read-outs stand apart in the source and are kept apart here.
# Target: T1, G1 APOL1 (Homo sapiens, UniProt O14791, I384M/S342G)
# T1 construct: expressed in transfected cells
# T1 sequence (O14791 28-398 S342G/I384M): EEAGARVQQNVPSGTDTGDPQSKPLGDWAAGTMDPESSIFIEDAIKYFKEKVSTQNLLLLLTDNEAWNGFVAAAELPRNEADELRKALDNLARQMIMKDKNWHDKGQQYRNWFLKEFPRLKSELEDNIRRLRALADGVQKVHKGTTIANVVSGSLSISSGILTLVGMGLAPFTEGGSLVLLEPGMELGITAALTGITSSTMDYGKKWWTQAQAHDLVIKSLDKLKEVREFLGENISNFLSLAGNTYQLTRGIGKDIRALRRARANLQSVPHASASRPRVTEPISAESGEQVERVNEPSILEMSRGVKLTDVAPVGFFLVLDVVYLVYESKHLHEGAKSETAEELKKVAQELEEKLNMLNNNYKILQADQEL
# Assay: Acute APOL1 Thallium Assay with inducible stable clones of HEK 293 cells
# Format: cell-based
# Details: HEK 293 T-Rex inducible stable clone expressing G1 APOL1
# How it was run: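 APOL1 pore function was measured as thallium influx, detected by a Tl+-sensitive fluorescent dye loaded as AM ester, on a FLIPR Tetra after Tl+ addition. Cells were HEK T-Rex G1 APOL1 clone DC3.25, 26,000 per well, induced with tetracycline at plating in Opti-MEM assay medium.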
# [1] = read-out: Thallium Assay (IC50)
Compound,IC50 [1],IC50 (Thallium Assay (IC50))
"NC1CC(c2c(-c3ccc(F)cc3)[nH]c3c(F)cc(C(F)(F)F)cc23)C1 (mixture of isomers) [Compound 1, 3-[7-fluoro-2-(4-fluorophenyl)-5-(trifluoromethyl)-1H-indol-3-yl]cyclobutanamine]",> 1 µM,
CNS(=O)(=O)NC[C@H]1C[C@H](c2c(-c3ccc(F)cc3)[nH]c3c(F)cc(F)cc32)C1 [Compound 354],> 1 µM,
CS(=O)(=O)NCC(=O)N[C@H]1C[C@@H](c2c(-c3ccc(F)cc3)[nH]c3c(F)cc(F)cc32)C1 [Compound 42],> 1 µM,
O=C(CC1CCOCC1)NC[C@H]1C[C@@H](c2c(-c3ccc(F)cc3)[nH]c3c(F)cc(F)cc32)C1 [Compound 325],> 1 µM,
O=S(=O)(NC[C@H](O)CO)NC[C@H]1C[C@H](c2c(-c3ccc(F)cc3)[nH]c3c(F)cc(F)cc32)C1 [Compound 350],> 1 µM,
O=C1C[C@@H](C(=O)NC[C@H]2C[C@@H](c3c(-c4ccc(F)cc4)[nH]c4c(F)cc(F)cc43)C2)N1 [Compound 241],> 1 µM,
NS(=O)(=O)CCC(=O)N[C@H]1C[C@@H](c2c(-c3ccc(F)cc3)[nH]c3c(F)cc(F)cc32)C1 [Compound 51],> 1 µM,
CC1(C)CCC(C(=O)N[C@H]2C[C@H](c3c(-c4ccc(F)cc4)[nH]c4c(F)cc(F)cc43)C2)N1 (some centres unmarked) [Compound 127],> 1 µM,
C[C@@H](O)[C@@H](CO)NS(=O)(=O)NC[C@H]1C[C@H](c2c(-c3ccc(F)cc3)[nH]c3c(F)cc(F)cc32)C1 [Compound 363],> 1 µM,
CS(=O)(=O)CCC(=O)NC[C@H]1C[C@@H](c2c(-c3ccc(F)cc3)[nH]c3c(F)cc(F)cc32)C1 [Compound 262],> 1 µM,
O=S(=O)(NC[C@H]1C[C@H](c2c(-c3ccc(F)cc3)[nH]c3c(F)cc(F)cc32)C1)c1cn[nH]c1 [Compound 416],> 1 µM,
O=C1NCCC1C(=O)NC1CC(Cc2c(-c3ccc(F)cc3)[nH]c3c(F)cc(F)cc23)C1 (centres unmarked) [Compound 163],> 1 µM,
CC1(C(=O)N[C@H]2C[C@@H](c3c(-c4ccc(F)cc4)[nH]c4c(F)cc(F)cc43)C2)CCC(=O)NC1 (mixture of isomers) [Compound 66],> 1 µM,
CS(=O)(=O)CCCC(=O)NC[C@H]1C[C@@H](c2c(-c3ccc(F)cc3)[nH]c3c(F)cc(F)cc32)C1 [Compound 308],> 1 µM,
O=C(CC1CC(F)(F)C1)N[C@H]1C[C@@H](c2c(-c3ccc(F)cc3)[nH]c3c(F)cc(F)cc32)C1 [Compound 31],> 1 µM,
CC(C)(C)OC(=O)N1CCC[C@H]1C(=O)NC[C@H]1C[C@H](c2c(-c3ccc(F)cc3)[nH]c3c(F)cc(F)cc32)C1 [Compound 217],,0.25 to 1 µM
NS(=O)(=O)CCC(=O)NC[C@H]1C[C@@H](c2c(-c3ccc(F)cc3)[nH]c3c(F)cc(F)cc32)C1 [Compound 232],> 1 µM,
Cn1ccc(NCC2CC(c3c(-c4ccc(F)cc4)[nH]c4c(F)cc(F)cc34)C2)n1 (centres unmarked) [Compound 399],> 1 µM,

Compound,IC50 [1],IC50 (Thallium Assay (IC50))
CC(=O)NCCNC1CC(c2c(-c3ccc(F)cc3)[nH]c3c(F)cc(F)cc23)C1 (centres unmarked) [Compound 23],> 1 µM,
CC(NS(C)(=O)=O)C(=O)N[C@H]1C[C@@H](c2c(-c3ccc(F)cc3)[nH]c3c(F)cc(F)cc32)C1 (mixture of isomers) [Compound 55],> 1 µM,
CN(C)C(=O)CCC(=O)N[C@H]1C[C@@H](c2c(-c3ccc(F)cc3)[nH]c3c(F)cc(F)cc32)C1 [Compound 60],> 1 µM,
O=C(CCN1CCCCC1)N[C@H]1C[C@@H](c2c(-c3ccc(F)cc3)[nH]c3c(F)cc(F)cc32)C1 [Compound 61],> 1 µM,
O=C(NC[C@H]1C[C@H](c2c(-c3ccc(F)cc3)[nH]c3c(F)cc(F)cc32)C1)c1ccn[nH]c1=O [Compound 312],> 1 µM,
CN(C1COC1)C1CC(c2c(-c3ccc(F)cc3)[nH]c3c(F)cc(F)cc23)C1 (centres unmarked) [Compound 24],> 1 µM,
O=S(=O)(N[C@H]1C[C@@H](c2c(-c3ccc(F)cc3)[nH]c3c(F)cc(F)cc32)C1)C1CCOCC1 [Compound 86],> 1 µM,
O=S(=O)(NCCc1c[nH]cn1)NC[C@H]1C[C@H](c2c(-c3ccc(F)cc3)[nH]c3c(F)cc(F)cc32)C1 [Compound 359],> 1 µM,
O=C(NC[C@H]1C[C@H](c2c(-c3ccc(F)cc3)[nH]c3c(F)cc(F)cc32)C1)c1cccnn1 [Compound 297],> 1 µM,
O=c1ccc2cc(S(=O)(=O)N[C@H]3C[C@H](c4c(-c5ccc(F)cc5)[nH]c5c(F)cc(F)cc54)C3)ccc2[nH]1 [Compound 155],> 1 µM,
O=C(NC[C@H]1C[C@@H](c2c(-c3ccc(F)cc3)[nH]c3c(F)cc(F)cc32)C1)c1nc[nH]n1 [Compound 302],> 1 µM,
O=C(CC1CCCOC1)N[C@H]1C[C@@H](c2c(-c3ccc(F)cc3)[nH]c3c(F)cc(F)cc32)C1 (some centres unmarked) [Compound 53],> 1 µM,
OCC1(NCC2CC(c3c(-c4ccc(F)cc4)[nH]c4c(F)cc(F)cc34)C2)CC1 (centres unmarked) [Compound 397],> 1 µM,
O=C(NC[C@H]1C[C@H](c2c(-c3ccc(F)cc3)[nH]c3c(F)cc(F)cc32)C1)c1ncccn1 [Compound 265],> 1 µM,
Fc1ccc(-c2[nH]c3c(F)cc(F)cc3c2C2CC(CNCC3COC3)C2)cc1 (centres unmarked) [Compound 405],> 1 µM,
CC(C)C(CO)NCC1CC(c2c(-c3ccc(F)cc3)[nH]c3c(F)cc(F)cc23)C1 (centres unmarked) [Compound 402],> 1 µM,
C[C@@H](O)C(=O)NC[C@H]1C[C@H](c2c(-c3ccc(F)cc3)[nH]c3c(F)cc(F)cc32)C1 [Compound 211],0.25 to 1 µM,

# Now from value to compound, other results behind:
IC50 [1],Compound,IC50 (Thallium Assay (IC50))
0.25 to 1 µM,O=C(NC[C@H]1C[C@@H](c2c(-c3ccc(F)cc3)[nH]c3c(F)cc(F)cc32)C1)C1CCO1 (some centres unmarked) [Compound 220],
< 0.25 µM,O=C(CCO)N1CC(Cc2c(-c3ccc(F)cc3)[nH]c3c(F)cc(F)cc23)C1 [Compound 439],
0.25 to 1 µM,O=C(N[C@H]1C[C@H](c2c(-c3ccc(F)cc3)[nH]c3c(F)cc(F)cc32)C1)C1COC1 [Compound 131],
< 0.25 µM,NCC(=O)NC[C@H]1C[C@@H](c2c(-c3ccc(F)cc3)[nH]c3c(F)cc(F)cc32)C1 [Compound 190],
0.25 to 1 µM,O=C(N[C@H]1C[C@H](c2c(-c3ccc(F)cc3)[nH]c3c(F)cc(F)cc32)C1)C(O)CO (some centres unmarked) [Compound 96],
0.25 to 1 µM,"CC(C)(O)C(=O)NC1CC(c2c(-c3ccc(F)cc3)[nH]c3c(F)cc(C(F)(F)F)cc23)C1 (mixture of isomers) [Compound 3, N-[3-[7-fluoro-2-(4-fluorophenyl)-5-(trifluoromethyl)-1H-indol-3-yl]cyclobutyl]-2-hydroxy-2-methyl-propanamide]",
0.25 to 1 µM,Fc1ccc(-c2[nH]c3c(F)cc(F)cc3c2C2CC(NCC(F)F)C2)cc1 (centres unmarked) [Compound 26],
0.25 to 1 µM,"NCC1(F)CC(c2c(-c3ccc(F)cc3)[nH]c3c(F)cc(F)cc23)C1 (centres unmarked) [Compound 428, [3-[5,7-difluoro-2-(4-fluorophenyl)-1H-indol-3-yl]-1-fluoro-cyclobutyl]methanamine]",
0.25 to 1 µM,C[C@H](O)C(=O)NC1CC(Cc2c(-c3ccc(F)cc3)[nH]c3c(F)cc(F)cc23)C1 (some centres unmarked) [Compound 161],
< 0.25 µM,O=C(NC[C@H]1C[C@H](c2c(-c3ccc(F)cc3)[nH]c3c(F)cc(F)cc32)C1)C1COC1 [Compound 202],
0.25 to 1 µM,NC(=O)C(=O)NC[C@H]1C[C@H](c2c(-c3ccc(F)cc3)[nH]c3c(F)cc(F)cc32)C1 [Compound 451],
0.25 to 1 µM,Cc1nc[nH]c1C(=O)NC1CC(Cc2c(-c3ccc(F)cc3)[nH]c3c(F)cc(F)cc23)C1 (centres unmarked) [Compound 162],
0.25 to 1 µM,CN1CCC(NCC2CC(c3c(-c4ccc(F)cc4)[nH]c4c(F)cc(F)cc34)C2)C1=O (centres unmarked) [Compound 381],
< 0.25 µM,"Fc1ccc(-c2[nH]c3c(F)cc(F)cc3c2CC2CNC2)cc1 [Compound 436, 3-(azetidin-3-ylmethyl)-5,7-difluoro-2-(4-fluorophenyl)-1H-indole]",
0.25 to 1 µM,CC(F)(F)C(=O)N[C@H]1C[C@H](c2c(-c3ccc(F)cc3)[nH]c3c(F)cc(F)cc32)C1 [Compound 130],
< 0.25 µM,O=C(N[C@H]1C[C@H](c2c(-c3ccc(F)cc3)[nH]c3c(F)cc(F)cc32)C1)C1(CO)CC1 [Compound 142],
< 0.25 µM,CC(=O)NC[C@H]1C[C@H](c2c(-c3ccc(F)cc3)[nH]c3c(F)cc(F)cc32)C1 [Compound 195],
0.25 to 1 µM,"NC1CC(c2c(-c3ccc(OC(F)(F)F)cc3)[nH]c3c(F)cc(F)cc23)C1 (centres unmarked) [Compound 8, 3-[5,7-difluoro-2-[4-(trifluoromethoxy)phenyl]-1H-indol-3-yl]cyclobutanamine]",
0.25 to 1 µM,NC12CC(NCC3CC(c4c(-c5ccc(F)cc5)[nH]c5c(F)cc(F)cc45)C3)(C1)C2 (centres unmarked) [Compound 384],
0.25 to 1 µM,NC(=O)CNS(=O)(=O)NC[C@H]1C[C@H](c2c(-c3ccc(F)cc3)[nH]c3c(F)cc(F)cc32)C1 [Compound 341],
0.25 to 1 µM,Fc1ccc(-c2[nH]c3c(F)cc(F)cc3c2C2CC(CNC3COC3)C2)cc1 (centres unmarked) [Compound 380],
< 0.25 µM,C[C@H](O)C(=O)N1CC(Cc2c(-c3ccc(F)cc3)[nH]c3c(F)cc(F)cc23)C1 [Compound 438],
0.25 to 1 µM,Cn1cnc(CC(=O)N[C@H]2C[C@H](c3c(-c4ccc(F)cc4)[nH]c4c(F)cc(F)cc43)C2)c1 [Compound 143],
0.25 to 1 µM,OCCNC1CC(c2c(-c3ccc(F)cc3)[nH]c3c(F)cc(F)cc23)C1 (centres unmarked) [Compound 25],

# From patent US12281102B2, “Inhibitors of APOL1 and methods of using same” (Vertex Pharmaceuticals Incorporated, priority 2020, dated 2025)
